Tested on: MV-4-11 cells
Assay: Gene expression microarray analysis (Affymetrix PrimeView) and GSEA
Assay type: cell-based, human
Set-up: RFU PODN (11730768_x_at) / Fold change /veh PODN (11730768_x_at) / RFU LINC00158 (11744669_a_at) / Fold change /veh LINC00158 (11744669_a_at) / RFU DUSP10 (11751237_a_at) / Fold change /veh DUSP10 (11751237_a_at) / RFU ID3 (11757404_x_at) / Fold change /veh ID3 (11757404_x_at) / RFU PLEKHG5 (11737974_s_at) / Fold change /veh PLEKHG5 (11737974_s_at) / RFU LRRC4B (11730491_at) / Fold change /veh LRRC4B (11730491_at) / RFU GIMAP4 (11747438_a_at) / Fold change /veh GIMAP4 (11747438_a_at) / RFU KRT8 (11758183_x_at) / Fold change /veh KRT8 (11758183_x_at) / RFU CNN1 (11734310_a_at) / Fold change /veh CNN1 (11734310_a_at) / RFU VPS37D (11726825_at) / Fold change /veh VPS37D (11726825_at) / RFU C10orf10 (11716522_x_at) / Fold change /veh C10orf10 (11716522_x_at) / RFU KIR2DL2 /// KIR2DL4 /// KIR2DL5A /// KIR2DL5B /// KIR2DS1 /// KIR2DS2 /// KIR2DS3 /// KIR2DS4 /// KIR3DL3 /// KIR3DL3 /// KIR3DS1 (11738374_at) / Fold change /veh KIR2DL2 /// KIR2DL4 /// KIR2DL5A /// KIR2DL5B /// KIR2DS1 /// KIR2DS2 /// KIR2DS3 /// KIR2DS4 /// KIR3DL3 /// KIR3DL3 /// KIR3DS1 (11738374_at) / RFU C1QL1 (11718748_at) / Fold change /veh C1QL1 (11718748_at) / RFU TMPRSS4 (11747572_a_at) / Fold change /veh TMPRSS4 (11747572_a_at) / RFU HAMP (11756126_x_at) / Fold change /veh HAMP (11756126_x_at) / RFU RNFT2 (11725882_a_at) / Fold change /veh RNFT2 (11725882_a_at) / RFU NR4A2 (11747474_a_at) / Fold change /veh NR4A2 (11747474_a_at) / RFU ABCC12 (11746883_a_at) / Fold change /veh ABCC12 (11746883_a_at) / RFU TMEM136 (11760407_x_at) / Fold change /veh TMEM136 (11760407_x_at) / RFU CLDN22 /// WWC2 (11732394_at) / Fold change /veh CLDN22 /// WWC2 (11732394_at) / RFU HLA-DPB1 (11760878_x_at) / Fold change /veh HLA-DPB1 (11760878_x_at) / RFU SPINT1 (11716480_a_at) / Fold change /veh SPINT1 (11716480_a_at) / RFU GAP43 (11754022_s_at) / Fold change /veh GAP43 (11754022_s_at) / RFU A4GNT (11735810_at) / Fold change /veh A4GNT (11735810_at) / RFU PRB3 (11715151_x_at) / Fold change /veh PRB3 (11715151_x_at) / RFU TUBB4B (11761932_at) / Fold change /veh TUBB4B (11761932_at) / RFU CAPN14 (11732068_a_at) / Fold change /veh CAPN14 (11732068_a_at) / RFU TMCC2 (11721928_a_at) / Fold change /veh TMCC2 (11721928_a_at) / RFU IRGQ (11745062_a_at) / Fold change /veh IRGQ (11745062_a_at) / RFU FAM174B (11720279_a_at) / Fold change /veh FAM174B (11720279_a_at) / RFU TMPRSS4 (11748680_a_at) / Fold change /veh TMPRSS4 (11748680_a_at) / RFU FAM212B (11763350_a_at) / Fold change /veh FAM212B (11763350_a_at) / RFU PLEKHG5 (11743358_a_at) / Fold change /veh PLEKHG5 (11743358_a_at) / RFU ZSCAN30 (11745921_a_at) / Fold change /veh ZSCAN30 (11745921_a_at) / RFU CMKLR1 (11741424_a_at) / Fold change /veh CMKLR1 (11741424_a_at) / RFU LOC101060620 /// MAPK8IP1 (11723275_at) / Fold change /veh LOC101060620 /// MAPK8IP1 (11723275_at) / RFU SPTSSB (11747773_x_at) / Fold change /veh SPTSSB (11747773_x_at) / RFU PRSS12 (11739890_at) / Fold change /veh PRSS12 (11739890_at) / RFU BIN1 (11741810_x_at) / Fold change /veh BIN1 (11741810_x_at) / RFU WNT11 (11732464_a_at) / Fold change /veh WNT11 (11732464_a_at) / RFU C10orf10 (11716521_a_at) / Fold change /veh C10orf10 (11716521_a_at) / RFU C5orf56 (11738089_at) / Fold change /veh C5orf56 (11738089_at) / RFU CYB561 (11721691_x_at) / Fold change /veh CYB561 (11721691_x_at) / RFU ANKRD19P (11752326_a_at) / Fold change /veh ANKRD19P (11752326_a_at) / RFU OR2T12 /// OR2T33 /// OR2T8 (11738714_s_at) / Fold change /veh OR2T12 /// OR2T33 /// OR2T8 (11738714_s_at) / RFU VCAN (11748164_a_at) / Fold change /veh VCAN (11748164_a_at) / RFU JSRP1 (11732532_at) / Fold change /veh JSRP1 (11732532_at) / RFU KRTAP10-11 (11738290_x_at) / Fold change /veh KRTAP10-11 (11738290_x_at) / RFU MYO3A (11730013_a_at) / Fold change /veh MYO3A (11730013_a_at) / RFU EBF3 (11725865_a_at) / Fold change /veh EBF3 (11725865_a_at) / RFU CAMK2N1 (11719241_x_at) / Fold change /veh CAMK2N1 (11719241_x_at) / RFU C5orf56 (11738088_a_at) / Fold change /veh C5orf56 (11738088_a_at) / RFU OLFML3 (11715873_a_at) / Fold change /veh OLFML3 (11715873_a_at) / RFU LOC100653217 /// NTM (11731650_a_at) / Fold change /veh LOC100653217 /// NTM (11731650_a_at) / RFU MAPK11 (11762145_a_at) / Fold change /veh MAPK11 (11762145_a_at) / RFU FIZ1 (11724087_x_at) / Fold change /veh FIZ1 (11724087_x_at) / RFU OASL (11726364_x_at) / Fold change /veh OASL (11726364_x_at) / RFU SOX15 (11748057_x_at) / Fold change /veh SOX15 (11748057_x_at) / RFU CD79A (11719716_a_at) / Fold change /veh CD79A (11719716_a_at) / RFU HIST1H1D (11736915_at) / Fold change /veh HIST1H1D (11736915_at) / RFU CASKIN2 (11723855_a_at) / Fold change /veh CASKIN2 (11723855_a_at) / RFU LOC730098 (11760151_x_at) / Fold change /veh LOC730098 (11760151_x_at) / RFU OR4N2 (11742367_at) / Fold change /veh OR4N2 (11742367_at) / RFU PRRT2 (11749266_a_at) / Fold change /veh PRRT2 (11749266_a_at) / RFU SNX32 (11753110_a_at) / Fold change /veh SNX32 (11753110_a_at) / RFU CDHR5 (11726645_a_at) / Fold change /veh CDHR5 (11726645_a_at) / RFU RCAN1 (11760418_a_at) / Fold change /veh RCAN1 (11760418_a_at) / RFU FAM167A (11723789_a_at) / Fold change /veh FAM167A (11723789_a_at) / RFU FAM26E (11764081_at) / Fold change /veh FAM26E (11764081_at) / RFU ISYNA1 (11749810_s_at) / Fold change /veh ISYNA1 (11749810_s_at) / RFU ACY1 (11761880_at) / Fold change /veh ACY1 (11761880_at) / RFU 11764098_at / Fold change /veh 11764098_at / RFU SAMD14 (11745864_x_at) / Fold change /veh SAMD14 (11745864_x_at) / RFU NPB (11741838_a_at) / Fold change /veh NPB (11741838_a_at) / RFU TMPRSS6 (11731388_a_at) / Fold change /veh TMPRSS6 (11731388_a_at) / RFU KRTAP10-2 (11738614_at) / Fold change /veh KRTAP10-2 (11738614_at) / RFU ARHGAP8 /// PRR5-ARHGAP8 (11727945_x_at) / Fold change /veh ARHGAP8 /// PRR5-ARHGAP8 (11727945_x_at) / RFU KRTAP5-7 /// NADSYN1 (11734609_at) / Fold change /veh KRTAP5-7 /// NADSYN1 (11734609_at) / RFU RASL12 (11751679_a_at) / Fold change /veh RASL12 (11751679_a_at) / RFU CDKN2B (11736163_a_at) / Fold change /veh CDKN2B (11736163_a_at) / RFU PRF1 (11729649_at) / Fold change /veh PRF1 (11729649_at) / RFU, ZNF638 /// ZNF638-IT1 / Fold change vs veh, ZNF638 /// ZNF638-IT1 / RFU, PANK3 / Fold change vs veh, PANK3 / RFU, SH3YL1 / Fold change vs veh, SH3YL1 / RFU, ZEB2 / Fold change vs veh, ZEB2 / RFU, NRIP1 / Fold change vs veh, NRIP1 / RFU, PTTG1IP / Fold change vs veh, PTTG1IP / RFU, CAPN2 / Fold change vs veh, CAPN2 / RFU, MED14 / Fold change vs veh, MED14 / RFU, SNORA58 / Fold change vs veh, SNORA58 / RFU, C1orf63 / Fold change vs veh, C1orf63 / RFU, LRRFIP1 / Fold change vs veh, LRRFIP1 / RFU, NDUFAF7 / Fold change vs veh, NDUFAF7 / RFU, SLC12A2 / Fold change vs veh, SLC12A2 / RFU, IBTK / Fold change vs veh, IBTK / RFU, ESF1 / Fold change vs veh, ESF1 / Fold change vs veh, TMEM50B / RFU, TAOK1 / Fold change vs veh, TAOK1 / RFU, ACBD3 / Fold change vs veh, ACBD3 / RFU, TMA16 / Fold change vs veh, TMA16 / RFU, RWDD3 / Fold change vs veh, RWDD3 / RFU, BCAT1 / Fold change vs veh, BCAT1 / RFU, EDEM3 / Fold change vs veh, EDEM3 / RFU, TMEM33 / Fold change vs veh, TMEM33 / RFU, WDR75 / Fold change vs veh, WDR75 / RFU, AHCTF1 / Fold change vs veh, AHCTF1 / RFU, TFRC / Fold change vs veh, TFRC / RFU, ZDHHC17 / Fold change vs veh, ZDHHC17 / RFU, NOM1 / Fold change vs veh, NOM1 / RFU, ARL8B / Fold change vs veh, ARL8B / RFU, ZBTB11 / Fold change vs veh, ZBTB11 / RFU, TAMM41 / Fold change vs veh, TAMM41 / RFU, KIAA1704 /// LOC100996395 / Fold change vs veh, KIAA1704 /// LOC100996395 / RFU, ING1 / Fold change vs veh, ING1 / RFU, TRMT61B / Fold change vs veh, TRMT61B / RFU, FUBP3 / Fold change vs veh, FUBP3 / RFU, TP53 / Fold change vs veh, TP53 / RFU, TNKS2 / Fold change vs veh, TNKS2 / RFU, ZFP14 / Fold change vs veh, ZFP14 / RFU, ACTR2 / Fold change vs veh, ACTR2 / RFU, PPP3R1 / Fold change vs veh, PPP3R1 / RFU, PIK3R1 / Fold change vs veh, PIK3R1 / RFU, HNRNPA1 / Fold change vs veh, HNRNPA1 / RFU, RNF170 / Fold change vs veh, RNF170 / RFU, ZNF28 / Fold change vs veh, ZNF28 / RFU, RNGTT / Fold change vs veh, RNGTT / RFU, OGT / Fold change vs veh, OGT / RFU, BRD1 / Fold change vs veh, BRD1 / RFU, MARS / Fold change vs veh, MARS / RFU, ZNF655 / Fold change vs veh, ZNF655 / RFU, FAHD1 / Fold change vs veh, FAHD1 / RFU, BDP1 / Fold change vs veh, BDP1 / RFU, LRRCC1 / Fold change vs veh, LRRCC1 / RFU, ARID1A / Fold change vs veh, ARID1A / RFU, ZNF146 / Fold change vs veh, ZNF146 / RFU, ZNF330 / Fold change vs veh, ZNF330 / RFU, GPN3 / Fold change vs veh, GPN3 / RFU, C9orf123 / Fold change vs veh, C9orf123 / RFU, N4BP2L2 / Fold change vs veh, N4BP2L2 / RFU, ARFIP1 / Fold change vs veh, ARFIP1 / RFU, FAM179B / Fold change vs veh, FAM179B / RFU, BCL10 / Fold change vs veh, BCL10 / RFU, UHRF1BP1L / Fold change vs veh, UHRF1BP1L / RFU, BET1 / Fold change vs veh, BET1 / RFU, CNOT2 / Fold change vs veh, CNOT2 / RFU, ZNF268 / Fold change vs veh, ZNF268 / Fold change vs veh, ZNF507 / RFU, DGCR2 / Fold change vs veh, DGCR2 / RFU, WDSUB1 / Fold change vs veh, WDSUB1 / Fold change vs veh, HSP90B1 /// MIR3652 / RFU, ADSS / Fold change vs veh, ADSS / RFU, GK / Fold change vs veh, GK / RFU, ZNF148 / Fold change vs veh, ZNF148 / RFU, TAF9 / Fold change vs veh, TAF9 / RFU, SLC1A5 / Fold change vs veh, SLC1A5 / RFU, SLMO2 / Fold change vs veh, SLMO2 / RFU, ABCC4 / Fold change vs veh, ABCC4 / RFU, LOC101060439 /// RAP1B / Fold change vs veh, LOC101060439 /// RAP1B / RFU, RFX7 / Fold change vs veh, RFX7 / RFU, GTPBP10 / Fold change vs veh, GTPBP10 / RFU, CNEP1R1 / Fold change vs veh, CNEP1R1 / RFU, BIVM-ERCC5 /// ERCC5 / Fold change vs veh, BIVM-ERCC5 /// ERCC5 / RFU, ILF3 / Fold change vs veh, ILF3 / RFU 11762660_at / Fold change /veh 11762660_at / RFU VCAN (11757783_s_at) / Fold change /veh VCAN (11757783_s_at) / RFU DDX43 (11728927_at) / Fold change /veh DDX43 (11728927_at) / RFU KRT8 (11758188_x_at) / Fold change /veh KRT8 (11758188_x_at) / RFU NKD1 (11759106_at) / Fold change /veh NKD1 (11759106_at) / RFU SRD5A1 (11742802_a_at) / Fold change /veh SRD5A1 (11742802_a_at) / RFU TPSAB1 /// TPSB2 (11721975_s_at) / Fold change /veh TPSAB1 /// TPSB2 (11721975_s_at) / RFU GSTM3 (11746129_a_at) / Fold change /veh GSTM3 (11746129_a_at) / RFU IL23R (11737362_x_at) / Fold change /veh IL23R (11737362_x_at) / RFU TMEM51 (11727254_a_at) / Fold change /veh TMEM51 (11727254_a_at) / RFU PIWIL2 (11732686_x_at) / Fold change /veh PIWIL2 (11732686_x_at) / RFU ORM1 (11744905_x_at) / Fold change /veh ORM1 (11744905_x_at) / RFU CCDC152 (11743942_at) / Fold change /veh CCDC152 (11743942_at) / RFU ECM1 (11717891_a_at) / Fold change /veh ECM1 (11717891_a_at) / RFU IL23R (11748794_a_at) / Fold change /veh IL23R (11748794_a_at) / RFU TNFAIP8L3 (11732012_x_at) / Fold change /veh TNFAIP8L3 (11732012_x_at) / RFU MBOAT4 (11741988_at) / Fold change /veh MBOAT4 (11741988_at) / RFU 11764193_at / Fold change /veh 11764193_at / RFU TMEM53 (11763286_at) / Fold change /veh TMEM53 (11763286_at) / RFU MAGEB2 (11727129_at) / Fold change /veh MAGEB2 (11727129_at) / RFU TMEM200A (11744735_a_at) / Fold change /veh TMEM200A (11744735_a_at) / RFU CCDC152 (11751479_a_at) / Fold change /veh CCDC152 (11751479_a_at) / RFU FAM211A (11726209_a_at) / Fold change /veh FAM211A (11726209_a_at) / RFU RGS16 (11746705_a_at) / Fold change /veh RGS16 (11746705_a_at) / RFU VCAN (11755009_s_at) / Fold change /veh VCAN (11755009_s_at) / RFU RHOB (11743442_s_at) / Fold change /veh RHOB (11743442_s_at) / RFU RGS16 (11720943_a_at) / Fold change /veh RGS16 (11720943_a_at) / RFU RGS16 (11720944_at) / Fold change /veh RGS16 (11720944_at) / RFU, VPS4B / Fold change vs veh, VPS4B / RFU, CREB1 / Fold change vs veh, CREB1 / RFU, DNAJC13 / Fold change vs veh, DNAJC13 / RFU, GNAQ / Fold change vs veh, GNAQ / RFU, CDK5R1 / Fold change vs veh, CDK5R1 / RFU, ZRANB3 / Fold change vs veh, ZRANB3 / RFU, CUL4A / Fold change vs veh, CUL4A / RFU, CCNY / Fold change vs veh, CCNY / RFU, UFL1 / Fold change vs veh, UFL1 / RFU, COG3 / Fold change vs veh, COG3 / RFU, DIAPH2 / Fold change vs veh, DIAPH2 / RFU, SKA2 / Fold change vs veh, SKA2 / RFU, AFF3 / Fold change vs veh, AFF3 / RFU, LMF1 / Fold change vs veh, LMF1 / RFU, IPO11 / Fold change vs veh, IPO11 / RFU, DFFB / Fold change vs veh, DFFB / RFU, FOXP1 / Fold change vs veh, FOXP1 / RFU, CARD8 / Fold change vs veh, CARD8 / RFU, STRN3 / Fold change vs veh, STRN3 / RFU, ADK / Fold change vs veh, ADK / RFU, RASSF2 / Fold change vs veh, RASSF2 / RFU, WIPF1 / Fold change vs veh, WIPF1 / RFU, LARP1B / Fold change vs veh, LARP1B / RFU, RASA1 / Fold change vs veh, RASA1 / RFU, RB1 / Fold change vs veh, RB1 / RFU, PPFIA1 / Fold change vs veh, PPFIA1 / RFU, MAT2A / Fold change vs veh, MAT2A / RFU, CCT5 / Fold change vs veh, CCT5 / RFU, WDR92 / Fold change vs veh, WDR92 / RFU, CUX1 / Fold change vs veh, CUX1 / RFU, TTC7A / Fold change vs veh, TTC7A / RFU, TMEM135 / Fold change vs veh, TMEM135 / RFU, DEPTOR / Fold change vs veh, DEPTOR / RFU, CPM / Fold change vs veh, CPM / RFU, DNAJB6 / Fold change vs veh, DNAJB6 / RFU, CACNA2D3 / Fold change vs veh, CACNA2D3 / RFU, DTX4 / Fold change vs veh, DTX4 / RFU, TFCP2 / Fold change vs veh, TFCP2 / RFU, GMCL1 /// GMCL1P1 / Fold change vs veh, GMCL1 /// GMCL1P1 / RFU, AEBP2 / Fold change vs veh, AEBP2 / RFU, SNHG1 /// SNORD22 /// SNORD25 /// SNORD26 /// SNORD27 /// SNORD28 /// SNORD29 /// SNORD31 / Fold change vs veh, SNHG1 /// SNORD22 /// SNORD25 /// SNORD26 /// SNORD27 /// SNORD28 /// SNORD29 /// SNORD31 / Fold change (Aza/veh), C12orf56 (ProbeSet 11735607_a_at) / Fold change (ACY-1035/veh), C12orf56 (ProbeSet 11735607_a_at) / Fold change (Aza/veh), FGFR1OP (ProbeSet 11751329_s_at) / Fold change (ACY-1035/veh), FGFR1OP (ProbeSet 11751329_s_at) / Fold change (Aza/veh), VPS36 (ProbeSet 11739960_a_at) / Fold change (ACY-1035/veh), VPS36 (ProbeSet 11739960_a_at) / RFU SYPL1 (11715823_x_at) / Fold change /veh SYPL1 (11715823_x_at) / RFU IGFBP7 (11715501_s_at) / Fold change /veh IGFBP7 (11715501_s_at) / RFU REEP3 (11722064_at) / Fold change /veh REEP3 (11722064_at) / RFU IGLL1 (11728026_x_at) / Fold change /veh IGLL1 (11728026_x_at): dose or concentration left out as unconfirmed
Details: ProbeSet 11740011_at; LIST B

## Nc1ccc(-c2cccs2)cc1NC(=O)c1ccc2c(c1)cc(C1CC1)n2CCN1CCOCC1 [ACY-1035]
  Fold change vs veh, ZFP14: 1.03

Reference: paper PMC5218480 (PLoS ONE, 2017)
